Data taken from patent publication US4379917A, “6"-(Substituted)-apramycin antibiotic derivatives and intermediates and starting materials therefor” (Eli Lilly and Company, priority 1981, dated 1983).
In brackets after ≈: the same amount, converted by molar mass. Read-outs that look alike come from different tables or passages of the source.

Experiments:
[1] = test system: Pseudomonas aeruginosa X48; experiment: MIC by standard agar dilution test; format: cell-based; conditions: X48, read-out: Minimum Inhibitory Concentration
[2] = test system: Pseudomonas aeruginosa X528; experiment: MIC by standard agar dilution test; format: cell-based
[3] = test system: Pseudomonas aeruginosa X239; experiment: MIC by standard agar dilution test; format: cell-based
[4] = test system: Pseudomonas aeruginosa Ps9; experiment: MIC by standard agar dilution test; format: cell-based
[5] = test system: Pseudomonas aeruginosa Ps15; experiment: MIC by standard agar dilution test; format: cell-based; conditions: PS15, read-out: Minimum Inhibitory Concentration
[6] = test system: Pseudomonas aeruginosa Ps25; experiment: MIC by standard agar dilution test; format: cell-based; conditions: PS25, read-out: Minimum Inhibitory Concentration
[7] = test system: Pseudomonas aeruginosa 4276; experiment: MIC by standard agar dilution test; format: cell-based
[8] = test system: Pseudomonas aeruginosa PI23; experiment: MIC by standard agar dilution test; format: cell-based
[9] = test system: Pseudomonas aeruginosa SF-2; experiment: MIC by standard agar dilution test; format: cell-based
Serratia marcescens SE2 = experiment: MIC by standard agar dilution test; format: cell-based; conditions: SE2, read-out: Minimum Inhibitory Concentration
Serratia marcescens X99 = experiment: MIC by standard agar dilution test; format: cell-based; conditions: X99, read-out: Minimum Inhibitory Concentration
Serratia marcescens SE3 = experiment: MIC by standard agar dilution test; format: cell-based
[10] = test system: Enterobacter aerogenes EB6; experiment: MIC by standard agar dilution test; format: cell-based; conditions: Klebsiella aerogenes, EB6, read-out: Minimum Inhibitory Concentration
[11] = test system: Enterobacter cloacae EN453; experiment: MIC by standard agar dilution test; format: cell-based; conditions: EN453, read-out: Minimum Inhibitory Concentration
[12] = test system: Enterobacter cloacae EB24; experiment: MIC by standard agar dilution test; format: cell-based; conditions: EB24, read-out: Minimum Inhibitory Concentration
Proteus morganii PR1 = experiment: MIC by standard agar dilution test; format: cell-based; conditions: Morganella morganii, PR1, read-out: Minimum Inhibitory Concentration
Proteus morganii PR2 = experiment: MIC by standard agar dilution test; format: cell-based; conditions: Morganella morganii
Proteus inconstans PV25 = experiment: MIC by standard agar dilution test; format: cell-based; conditions: Providencia alcalifaciens, PV25, read-out: Minimum Inhibitory Concentration
[13] = test system: Klebsiella pneumoniae KL2; experiment: MIC by standard agar dilution test; format: cell-based; conditions: KL2, read-out: Minimum Inhibitory Concentration
[14] = test system: Enterobacter aerogenes EB17; experiment: MIC by standard agar dilution test; format: cell-based; conditions: Klebsiella aerogenes, EB17, read-out: Minimum Inhibitory Concentration
Proteus morganii PR15 = experiment: MIC by standard agar dilution test; format: cell-based; conditions: Morganella morganii, PR15; Table II; agar dilution; read-out: Minimum Inhibitory Concentration
[15] = test system: Klebsiella pneumoniae KL14; experiment: MIC by standard agar dilution test; format: cell-based; conditions: KL14, read-out: Minimum Inhibitory Concentration
[16] = test system: Staphylococcus aureus 3055; experiment: MIC by standard agar dilution test; format: cell-based; conditions: Staphylococcus aureus, 3055, read-out: Minimum Inhibitory Concentration
Erwinia amylovora = experiment: MIC by standard agar dilution test; format: cell-based; conditions: Table II, read-out: Minimum Inhibitory Concentration
Text: (§1) The antibacterial activity of the antibiotic compounds of this invention is illustrated by the following in vitro and in vivo test data obtained with representative compounds. In Tables I and II the minimum inhibitory concentration (MIC) for representative compounds against a wide range of gram-positive and gram-negative bacteria is presented. The MIC values were obtained by the standard agar dilution test.

[17] = test system: Staphylococcus aureus 3074; experiment: MIC by standard agar dilution test; format: cell-based; conditions: Table II, read-out: Minimum Inhibitory Concentration
Text: as §1

[18] = test system: Streptococcus faecalis X66; experiment: MIC by standard agar dilution test; format: cell-based; conditions: Enterococcus faecalis, X66; Table II; agar dilution; read-out: Minimum Inhibitory Concentration
Salmonella typhosa SA12 = experiment: MIC by standard agar dilution test; format: cell-based; conditions: Salmonella enterica, read-out: Minimum Inhibitory Concentration
Escherichia coli EC14 = experiment: MIC by standard agar dilution test; format: cell-based; conditions: EC14, read-out: Minimum Inhibitory Concentration
[19] = test system: Citrobacter freundii CF17; experiment: MIC by standard agar dilution test; format: cell-based
[20] = test system: Bordetella bronchiseptica 16; experiment: MIC by standard agar dilution test; format: cell-based
Salmonella typhimurium = experiment: MIC by standard agar dilution test; format: cell-based; conditions: Salmonella enterica, read-out: Minimum Inhibitory Concentration
[21] = test system: Pseudomonas solanacearum X185; experiment: microbe, parasite or virus in culture; format: cell-based; conditions: Ralstonia solanacearum, X185, read-out: Minimum Inhibitory Concentration
[22] = test system: Pseudomonas aeruginosa X239; experiment: Subcutaneous therapy of Pseudomonas aeruginosa X239 infections in mice; format: in vivo; conditions: X239, sc, 2 subcutaneous doses at 1 and 5 hours post infection, dose to protect 50 percent of test animals, read-out: Effective Dose (ED50)
Protocol: Table III illustrates the effective dose (ED50, effective dose to protect 50 percent of the test animals) for representative compounds of this invention against an experimental bacterial infection in mice. | *mg/kg × 2 subcutaneous doses at 1 and 5 hours post infections The ED50 values were determined as described by W. E. Wick et al., Journal of Bacteriolocy, 81 [No. 2], 233-235 (1961).

[23] = X239, read-out: Minimum Inhibitory Concentration, Table II
[24] = Pseudomonas aeruginosa, 4276, read-out: Minimum Inhibitory Concentration
[25] = SF2, read-out: Minimum Inhibitory Concentration
[26] = SE3, read-out: Minimum Inhibitory Concentration, Table 1
[27] = SE3, read-out: Minimum Inhibitory Concentration, Table II
[28] = PR2, Table 1, agar dilution, read-out: Minimum Inhibitory Concentration
[29] = X528, read-out: Minimum Inhibitory Concentration
[30] = X239, read-out: Minimum Inhibitory Concentration, Table 1
[31] = PS9, read-out: Minimum Inhibitory Concentration
[32] = PI23, read-out: Minimum Inhibitory Concentration

SMILES | MIC [1] [µg/mL] | MIC [3, 23] [µg/mL] | MIC [5] [µg/mL] | MIC [6] [µg/mL] | MIC [7, 24] [µg/mL] | MIC [9, 25] [µg/mL] | MIC (Serratia marcescens SE2) [µg/mL] | MIC (Serratia marcescens X99) [µg/mL] | MIC (Serratia marcescens SE3; [26]) [µg/mL] | MIC (Serratia marcescens SE3; [27]) [µg/mL] | MIC [10] [µg/mL] | MIC [11] [µg/mL] | MIC [12] [µg/mL] | MIC (Proteus morganii PR1) [µg/mL] | MIC (Proteus morganii PR2; [28]) [µg/mL] | MIC (Proteus inconstans PV25) [µg/mL] | MIC [13] [µg/mL] | MIC [14] [µg/mL] | MIC (Proteus morganii PR15) [µg/mL] | MIC [15] [µg/mL] | also measured
CN[C@@H]1[C@@H](O[C@H]2O[C@H](CCl)[C@@H](N)[C@H](O)[C@H]2O)O[C@H]2C[C@@H](N)[C@@H](O[C@H]3[C@H](O)[C@@H](O)[C@H](N)C[C@@H]3N)O[C@@H]2[C@@H]1O [Test Compound 3, 6"-Chloro-6"-Deoxyapramycin] | 16 (≈ 28.7 µM) | 2 (≈ 3.58 µM) | 16 (≈ 28.7 µM) | 16 (≈ 28.7 µM) | 16 (≈ 28.7 µM) | 16 (≈ 28.7 µM) | 4 (≈ 7.17 µM) | 4 (≈ 7.17 µM) | 4 (≈ 7.17 µM) | 16 (≈ 28.7 µM) | 4 (≈ 7.17 µM) | 4 (≈ 7.17 µM) | 4 (≈ 7.17 µM) | 4 (≈ 7.17 µM) | 32 (≈ 57.3 µM) | 4 (≈ 7.17 µM) | 4 (≈ 7.17 µM) | 16 (≈ 28.7 µM) | 8 (≈ 14.3 µM) | 2 (≈ 3.58 µM) | MIC ([2]; X528, Table 1, agar dilution, read-out: Minimum Inhibitory Concentration): 32 µg/mL (≈ 57.3 µM); MIC ([3]; X239, Table 1, read-out: Minimum Inhibitory Concentration): 8 µg/mL (≈ 14.3 µM); MIC ([4]; PS9, Table 1, agar dilution, read-out: Minimum Inhibitory Concentration): 32 µg/mL (≈ 57.3 µM); MIC ([8]; PI23, Table 1, agar dilution, read-out: Minimum Inhibitory Concentration): > 128 µg/mL; MIC [16]: 1 µg/mL (≈ 1.79 µM); MIC (Erwinia amylovora): 1 µg/mL (≈ 1.79 µM); MIC [17]: 1 µg/mL (≈ 1.79 µM); MIC [18]: 8 µg/mL (≈ 14.3 µM); MIC (Salmonella typhosa SA12): 2 µg/mL (≈ 3.58 µM); MIC (Escherichia coli EC14): 16 µg/mL (≈ 28.7 µM); MIC ([19]; CF17, read-out: Minimum Inhibitory Concentration): 4 µg/mL (≈ 7.17 µM); MIC ([20]; Bordetella bronchiseptica, 16, Table II, agar dilution, read-out: Minimum Inhibitory Concentration): 8 µg/mL (≈ 14.3 µM); MIC (Salmonella typhimurium; Table II, agar dilution): 8 µg/mL (≈ 14.3 µM); MIC [21]: 2 µg/mL (≈ 3.58 µM)
CN[C@@H]1[C@@H](O[C@H]2O[C@H](C)[C@@H](N)[C@H](O)[C@H]2O)O[C@H]2C[C@@H](N)[C@@H](O[C@H]3[C@H](O)[C@@H](O)[C@H](N)C[C@@H]3N)O[C@@H]2[C@@H]1O [Test Compound 4, 6"-Deoxyapramycin] | 4 (≈ 7.64 µM) | 2 (≈ 3.82 µM) | 4 (≈ 7.64 µM) | 4 (≈ 7.64 µM) | – | – | 4 (≈ 7.64 µM) | 2 (≈ 3.82 µM) | 4 (≈ 7.64 µM) | 16 (≈ 30.6 µM) | 4 (≈ 7.64 µM) | 4 (≈ 7.64 µM) | 4 (≈ 7.64 µM) | 4 (≈ 7.64 µM) | 8 (≈ 15.3 µM) | 2 (≈ 3.82 µM) | 4 (≈ 7.64 µM) | 4 (≈ 7.64 µM) | 8 (≈ 15.3 µM) | 4 (≈ 7.64 µM) | MIC [2, 29]: 16 µg/mL (≈ 30.6 µM); MIC [3, 30]: 4 µg/mL (≈ 7.64 µM); MIC [4, 31]: 16 µg/mL (≈ 30.6 µM); MIC ([7]; Pseudomonas aeruginosa, 4276, Table 1, agar dilution, read-out: Minimum Inhibitory Concentration): 8 µg/mL (≈ 15.3 µM); MIC [8, 32]: > 128 µg/mL; MIC ([9]; SF2, Table 1, agar dilution, read-out: Minimum Inhibitory Concentration): 8 µg/mL (≈ 15.3 µM); MIC [16]: 2 µg/mL (≈ 3.82 µM); MIC (Erwinia amylovora): 2 µg/mL (≈ 3.82 µM); MIC [17]: 1 µg/mL (≈ 1.91 µM); MIC [18]: 8 µg/mL (≈ 15.3 µM); MIC (Salmonella typhosa SA12): 4 µg/mL (≈ 7.64 µM); MIC (Escherichia coli EC14): 16 µg/mL (≈ 30.6 µM); MIC ([19]; CF17, Table II, agar dilution, read-out: Minimum Inhibitory Concentration): 8 µg/mL (≈ 15.3 µM); MIC ([20]; Bordetella bronchiseptica, 16, read-out: Minimum Inhibitory Concentration): 16 µg/mL (≈ 30.6 µM); MIC (Salmonella typhimurium): 16 µg/mL (≈ 30.6 µM); MIC [21]: 4 µg/mL (≈ 7.64 µM); ED50 [22]: 10.9 mg/kg
CN[C@@H]1[C@@H](O[C@H]2O[C@H](CO[Si](C)(C)C(C)(C)C)[C@@H](N)[C@H](O)[C@H]2O)O[C@H]2C[C@@H](N)[C@@H](O[C@H]3[C@H](O)[C@@H](O)[C@H](N)C[C@@H]3N)O[C@@H]2[C@@H]1O [Test Compound 6, 6"-O-(tert-Butyldimethylsilyl)Apramycin] | > 128 | – | 128 (≈ 196 µM) | 128 (≈ 196 µM) | 128 (≈ 196 µM) | 128 (≈ 196 µM) | 64 (≈ 97.9 µM) | 32 (≈ 48.9 µM) | 64 (≈ 97.9 µM) | – | 32 (≈ 48.9 µM) | 32 (≈ 48.9 µM) | 16 (≈ 24.5 µM) | 32 (≈ 48.9 µM) | – | 16 (≈ 24.5 µM) | 32 (≈ 48.9 µM) | – | – | – | MIC [2, 29]: 64 µg/mL (≈ 97.9 µM); MIC [3, 30]: 128 µg/mL (≈ 196 µM); MIC [4, 31]: > 128 µg/mL; MIC [8, 32]: > 128 µg/mL; MIC (Proteus morganii PR2; PR2, read-out: Minimum Inhibitory Concentration): 64 µg/mL (≈ 97.9 µM)
